What was measured:
[1] = test system: SWR/J mice sensitized with short ragweed allergen; assay: Topical alcaftadine in murine model of active anaphylaxis (allergic conjunctivitis, short ragweed challenge); assay type: in vivo, mouse; conditions: alcaftadine 0.0625% ophthalmic solution, 15 minutes after allergen challenge
Experimental: Male SWR/J mice (The Jackson Laboratory, Bar Harbor, Me.), aged 5-7 weeks and weighing between 12.55 and 17.73 grams, were sensitized with a 100 μl dose of a suspension of 50 μg short ragweed allergen (Greer Labs, Inc., Lenoir, N.C.) and 1 mg of aluminum hydroxide (Fisher Scientific, Pittsburgh, Pa.) by intraperitoneal injection at two weeks and prior to treatment and challenge. […] The mice were then dosed topically in the eye with an alcaftadine 0.0625% ophthalmic solution, positive control (ophthalmic solution comprising combination of ketotifen 0.05% and pheniramine 0.5%), or placebo prior to an ocular challenge with 1.5 mg short ragweed allergen in phosphate buffered saline. Fifteen (15) minutes after allergen challenge, mice were evaluated for clinical signs of allergic conjunctivitis by scoring for conjunctival redness, chemosis, tearing, and lid edema. Severity of clinical signs was scored by a trained technician using a standardized 0-2 scale.

[2] = target: T1, human histamine H4 receptor (Homo sapiens, UniProt Q9H3N8); assay: H4 receptor antagonist assay: shift of histamine EC50, Schild plot, in transfected SK-N-MC cells; assay type: cell-based
T1 construct: express a reporter gene construct and the human H4 receptor full-coding region; expressed in transfected cells; host or cells: SK-N-MC cells with a CRE-beta-galactosidase reporter
Experimental: Alcaftadine and 6,11-dihydro-11-(1-methyl-4-piperdinylidene)-5H-imidazo[2,1-b][3]benazepine-3-carboxylic acid (CAS #147083-93-0) were prepared at 10 mM in 100% dimethylsulfoxide (DMSO) for the binding assays and at 10 mM in Na/K phosphate buffer, pH 7.0, for the cellular assays. Cell pellets from SK-N-MC cells transfected with human H4 receptor were homogenized in 20 mM Tris-HCl/0.5 mM ethylendediaminetetraacetic acid (EDTA) pH 8.0 (TE buffer). Supernatants collected after centrifugation at 800 g were recentrifuged at 30,000 g for 30 min. Pellets were re-homogenized in TE buffer. […] Non-specific binding was defined with 100 μM cold histamine. […] Seven concentrations of compound were tested spanning 10^−11 to 10^−5 M with each concentration being run in triplicate. […] This assay was run twice and the results are reported as the average of the two runs. SK-N-MC cell lines were created that express a reporter gene construct and the human H4 receptor full-coding region. The reporter gene was β-galactosidase under the control of cyclic adenosine monophosphate (cAMP) responsive elements. Cells were plated in 96-well plates the night before the assay. Antagonists were added 10 min prior to the addition of histamine, which was added directly to the cell medium. Forskolin (5 μM final concentration) was added 10 min after the addition of histamine. Cells were returned to the incubator for 6 h at 37° C. The medium was then aspirated and cells were lysed with 25 μL of 0.1× assay buffer (10 mM sodium phosphate, pH 8, 0.2 mM MgSO4, 0.01 mM MnCl2) and incubated at room temperature for 10 min. […] Color was quantitated on a microplate reader at absorbance 570 nm. […]
To test whether alcaftadine or 6,11-dihydro-11-(1-methyl-4-piperdinylidene)-5H-imidazo[2,1-b][3]benazepine-3-carboxylic acid (CAS #147083-93-0) were antagonists of the H4 receptor, the ability of the compounds shift the EC50 of the histamine inhibition of forskolin-induced cAMP increases was assessed in SK-N-MC cells transfected with the human histamine H4 receptor. […]

mode of action at the receptor ([2]; parallel and rightward shifts in the histamine dose response curves): competitive antagonist | pA2 ([2]; x-intercept of the Schild plot): 5.6
Structure (SMILES): CN1CCC(=C2c3ccccc3CCn3c(C=O)cnc32)CC1 [Alcaftadine, 6,11-dihydro-11-(1-methyl-4-piperidinylidene)-5H-imidazo[2,1-b][3]benzazepine-3-carboxaldehyde]
preventing tearing [1]: as effective as the positive control and more effective than placebo | preventing itching, redness, chemosis and lid edema ([1]; positive control ketotifen 0.05% and pheniramine 0.5%): more effective than the positive control
